{"source": "patent US20230210870A1", "about": "“METHODS OF TREATING FEMALE HEALTH CONDITIONS RELATED TO SEX HORMONES” (priority 2020, published 2023)", "key": {"[1]": {"molecular_target": "T1, α1β1γ2 GABAA receptor (Homo sapiens, UniProt P14867+P18505)", "T1 construct": "expressed in transfected cells", "T1 sequence (P14867 28-456)": "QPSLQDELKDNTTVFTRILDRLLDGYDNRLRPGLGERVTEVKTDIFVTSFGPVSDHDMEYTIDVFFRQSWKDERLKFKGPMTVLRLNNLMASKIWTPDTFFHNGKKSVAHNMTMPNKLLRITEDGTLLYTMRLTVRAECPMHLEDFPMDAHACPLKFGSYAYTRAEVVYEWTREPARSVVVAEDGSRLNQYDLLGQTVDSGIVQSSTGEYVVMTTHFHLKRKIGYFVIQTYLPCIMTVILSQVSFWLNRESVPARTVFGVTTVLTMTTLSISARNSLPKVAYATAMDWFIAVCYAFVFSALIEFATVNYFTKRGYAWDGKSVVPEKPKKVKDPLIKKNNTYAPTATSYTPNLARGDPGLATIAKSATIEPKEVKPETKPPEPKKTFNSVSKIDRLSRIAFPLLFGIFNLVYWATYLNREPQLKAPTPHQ", "T1 sequence (P18505 26-474)": "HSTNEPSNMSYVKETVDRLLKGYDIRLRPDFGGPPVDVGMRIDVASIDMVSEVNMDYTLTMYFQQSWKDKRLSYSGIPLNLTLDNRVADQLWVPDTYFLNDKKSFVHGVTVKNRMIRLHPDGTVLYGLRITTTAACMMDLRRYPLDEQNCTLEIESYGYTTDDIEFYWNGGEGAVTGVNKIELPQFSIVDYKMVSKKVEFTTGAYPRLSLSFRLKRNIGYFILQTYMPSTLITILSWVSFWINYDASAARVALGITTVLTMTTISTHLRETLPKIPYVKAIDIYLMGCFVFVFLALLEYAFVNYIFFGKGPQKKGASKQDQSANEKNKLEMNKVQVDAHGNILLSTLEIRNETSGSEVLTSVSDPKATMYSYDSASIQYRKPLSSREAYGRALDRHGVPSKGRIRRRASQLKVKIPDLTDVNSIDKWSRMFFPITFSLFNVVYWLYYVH", "T1 sequence (P18507 40-475 partner)": "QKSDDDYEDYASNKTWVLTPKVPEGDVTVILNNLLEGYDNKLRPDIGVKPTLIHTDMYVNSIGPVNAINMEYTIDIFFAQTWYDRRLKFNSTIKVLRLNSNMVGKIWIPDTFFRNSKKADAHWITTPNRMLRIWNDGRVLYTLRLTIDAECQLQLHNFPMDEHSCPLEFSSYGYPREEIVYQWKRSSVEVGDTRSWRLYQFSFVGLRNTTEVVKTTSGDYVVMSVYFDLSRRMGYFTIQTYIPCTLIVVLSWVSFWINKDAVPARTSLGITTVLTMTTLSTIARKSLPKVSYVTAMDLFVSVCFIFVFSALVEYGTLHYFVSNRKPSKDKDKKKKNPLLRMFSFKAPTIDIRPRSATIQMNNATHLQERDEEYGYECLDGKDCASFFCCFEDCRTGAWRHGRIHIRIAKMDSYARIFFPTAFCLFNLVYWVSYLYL", "test": "FLIPR modulation of GABA response in cells expressing GABAA receptor subtype", "assay_type": "cell-based", "details": "in presence of GABA, — = value not measurable", "experimental": "(§1) Cells expressing the indicated GABAA receptor subtype were exposed to gamma-aminobutyric acid in the presence of varying concentrations of either CV-10155 or SPNC-019, calcium flux was measured using a fluorometric imaging plate reader (FLIPR), and EC50 values for compounds were determined."}, "[2]": {"molecular_target": "T2, α1β2γ2 GABAA receptor (Homo sapiens, UniProt P14867+P47870)", "T2 construct": "expressed in transfected cells", "T2 sequence (P14867 28-456)": "as the sequence (P14867 28-456) above", "T2 sequence (P47870 25-512 limits assumed)": "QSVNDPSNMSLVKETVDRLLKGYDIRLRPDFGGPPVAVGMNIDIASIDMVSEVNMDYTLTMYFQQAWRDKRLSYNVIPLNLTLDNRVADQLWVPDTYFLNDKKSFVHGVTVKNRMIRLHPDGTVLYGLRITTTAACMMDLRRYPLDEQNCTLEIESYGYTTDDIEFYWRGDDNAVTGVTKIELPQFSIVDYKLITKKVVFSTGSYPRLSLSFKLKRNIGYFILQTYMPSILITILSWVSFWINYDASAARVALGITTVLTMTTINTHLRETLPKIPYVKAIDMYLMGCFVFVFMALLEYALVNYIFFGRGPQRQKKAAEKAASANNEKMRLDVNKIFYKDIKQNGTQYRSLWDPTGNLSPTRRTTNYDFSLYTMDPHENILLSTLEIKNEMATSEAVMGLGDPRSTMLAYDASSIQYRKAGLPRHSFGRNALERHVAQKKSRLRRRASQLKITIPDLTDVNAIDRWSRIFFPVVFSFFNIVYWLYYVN", "T2 sequence (P18507 40-475 partner)": "as the sequence (P18507 40-475 partner) above", "test": "FLIPR modulation of GABA response in cells expressing GABAA receptor subtype", "assay_type": "cell-based", "details": "in presence of GABA, — = value not measurable", "experimental": "as §1"}, "[3]": {"molecular_target": "T3, α1β3γ2 GABAA receptor (Homo sapiens, UniProt P14867+P28472)", "T3 construct": "expressed in transfected cells", "T3 sequence (P14867 28-456)": "as the sequence (P14867 28-456) above", "T3 sequence (P28472 26-473)": "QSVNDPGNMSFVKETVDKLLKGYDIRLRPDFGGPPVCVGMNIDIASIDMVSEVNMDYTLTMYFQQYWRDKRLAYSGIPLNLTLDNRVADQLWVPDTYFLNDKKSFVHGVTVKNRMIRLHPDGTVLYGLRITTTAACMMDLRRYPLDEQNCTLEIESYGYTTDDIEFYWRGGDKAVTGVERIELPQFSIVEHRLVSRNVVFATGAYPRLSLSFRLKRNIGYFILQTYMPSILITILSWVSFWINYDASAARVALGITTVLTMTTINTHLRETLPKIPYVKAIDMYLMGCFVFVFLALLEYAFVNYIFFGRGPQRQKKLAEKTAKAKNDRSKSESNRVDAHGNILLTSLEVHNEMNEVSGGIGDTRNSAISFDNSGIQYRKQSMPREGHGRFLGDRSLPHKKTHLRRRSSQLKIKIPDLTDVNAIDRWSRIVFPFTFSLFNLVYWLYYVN", "T3 sequence (P18507 40-475 partner)": "as the sequence (P18507 40-475 partner) above", "test": "FLIPR modulation of GABA response in cells expressing GABAA receptor subtype", "assay_type": "cell-based", "details": "in presence of GABA, — = value not measurable", "experimental": "as §1"}, "[4]": {"molecular_target": "T4, α2β1γ2 GABAA receptor (Homo sapiens, UniProt P18505+P47869)", "T4 construct": "expressed in transfected cells", "test": "FLIPR modulation of GABA response in cells expressing GABAA receptor subtype", "assay_type": "cell-based", "details": "in presence of GABA, — = value not measurable", "experimental": "as §1"}, "[5]": {"molecular_target": "T5, α2β2γ2 GABAA receptor (Homo sapiens, UniProt P47869+P47870)", "T5 construct": "expressed in transfected cells", "test": "FLIPR modulation of GABA response in cells expressing GABAA receptor subtype", "assay_type": "cell-based", "details": "in presence of GABA, — = value not measurable", "experimental": "as §1"}, "[6]": {"molecular_target": "T6, α2β3γ2 GABAA receptor (Homo sapiens, UniProt P28472+P47869)", "T6 construct": "expressed in transfected cells", "test": "FLIPR modulation of GABA response in cells expressing GABAA receptor subtype", "assay_type": "cell-based", "details": "in presence of GABA, — = value not measurable", "experimental": "as §1"}, "[7]": {"molecular_target": "T7, α3β1γ2 GABAA receptor (Homo sapiens, UniProt P18505+P34903)", "T7 construct": "expressed in transfected cells", "test": "FLIPR modulation of GABA response in cells expressing GABAA receptor subtype", "assay_type": "cell-based", "details": "in presence of GABA, — = value not measurable", "experimental": "as §1"}, "[8]": {"molecular_target": "T8, α3β2γ2 GABAA receptor (Homo sapiens, UniProt P34903+P47870)", "T8 construct": "expressed in transfected cells", "test": "FLIPR modulation of GABA response in cells expressing GABAA receptor subtype", "assay_type": "cell-based", "details": "in presence of GABA, — = value not measurable", "experimental": "as §1"}, "[9]": {"molecular_target": "T9, α3β3γ2 GABAA receptor (Homo sapiens, UniProt P28472+P34903)", "T9 construct": "expressed in transfected cells", "test": "FLIPR modulation of GABA response in cells expressing GABAA receptor subtype", "assay_type": "cell-based", "details": "in presence of GABA, — = value not measurable", "experimental": "as §1"}, "[10]": {"molecular_target": "T10, α4β1γ2 GABAA receptor (Homo sapiens, UniProt P18505+P48169)", "T10 construct": "expressed in transfected cells", "test": "FLIPR modulation of GABA response in cells expressing GABAA receptor subtype", "assay_type": "cell-based", "details": "in presence of GABA, — = value not measurable", "experimental": "as §1"}, "[11]": {"molecular_target": "T11, α4β3γ2 GABAA receptor (Homo sapiens, UniProt P28472+P48169)", "T11 construct": "expressed in transfected cells", "test": "FLIPR modulation of GABA response in cells expressing GABAA receptor subtype", "assay_type": "cell-based", "details": "in presence of GABA, — = value not measurable", "experimental": "as §1"}, "[12]": {"molecular_target": "T12, α5β1γ2 GABAA receptor (Homo sapiens, UniProt P18505+P31644)", "T12 construct": "expressed in transfected cells", "test": "FLIPR modulation of GABA response in cells expressing GABAA receptor subtype", "assay_type": "cell-based", "details": "in presence of GABA, — = value not measurable", "experimental": "as §1"}, "[13]": {"molecular_target": "T13, α5β2γ2 GABAA receptor (Homo sapiens, UniProt P31644+P47870)", "T13 construct": "expressed in transfected cells", "T13 sequence (P31644 32-462)": "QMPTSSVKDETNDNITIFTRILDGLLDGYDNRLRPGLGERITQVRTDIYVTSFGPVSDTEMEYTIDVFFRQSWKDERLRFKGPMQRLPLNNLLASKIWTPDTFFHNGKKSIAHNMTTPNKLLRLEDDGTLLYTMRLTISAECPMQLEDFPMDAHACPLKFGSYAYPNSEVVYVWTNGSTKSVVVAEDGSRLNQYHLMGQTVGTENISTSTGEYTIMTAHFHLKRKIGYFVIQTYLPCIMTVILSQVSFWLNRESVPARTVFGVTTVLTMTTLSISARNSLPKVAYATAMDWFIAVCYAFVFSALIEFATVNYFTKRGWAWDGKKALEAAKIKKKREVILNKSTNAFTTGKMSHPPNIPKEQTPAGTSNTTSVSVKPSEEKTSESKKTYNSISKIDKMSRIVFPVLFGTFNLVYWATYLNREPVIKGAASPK", "T13 sequence (P47870 25-512 limits assumed)": "as the sequence (P47870 25-512 limits assumed) above", "T13 sequence (P18507 40-475 partner)": "as the sequence (P18507 40-475 partner) above", "test": "FLIPR modulation of GABA response in cells expressing GABAA receptor subtype", "assay_type": "cell-based", "details": "in presence of GABA, — = value not measurable", "experimental": "as §1"}, "[14]": {"molecular_target": "T14, α5β3γ2 GABAA receptor (Homo sapiens, UniProt P28472+P31644)", "T14 construct": "expressed in transfected cells", "T14 sequence (P31644 32-462)": "as the sequence (P31644 32-462) above", "T14 sequence (P28472 26-473)": "as the sequence (P28472 26-473) above", "T14 sequence (P18507 40-475 partner)": "as the sequence (P18507 40-475 partner) above", "test": "FLIPR modulation of GABA response in cells expressing GABAA receptor subtype", "assay_type": "cell-based", "details": "in presence of GABA, — = value not measurable", "experimental": "as §1"}, "[15]": {"molecular_target": "T15, α6β1γ2 GABAA receptor (Homo sapiens, UniProt P18505+Q16445)", "T15 construct": "expressed in transfected cells", "T15 sequence (Q16445 20-453)": "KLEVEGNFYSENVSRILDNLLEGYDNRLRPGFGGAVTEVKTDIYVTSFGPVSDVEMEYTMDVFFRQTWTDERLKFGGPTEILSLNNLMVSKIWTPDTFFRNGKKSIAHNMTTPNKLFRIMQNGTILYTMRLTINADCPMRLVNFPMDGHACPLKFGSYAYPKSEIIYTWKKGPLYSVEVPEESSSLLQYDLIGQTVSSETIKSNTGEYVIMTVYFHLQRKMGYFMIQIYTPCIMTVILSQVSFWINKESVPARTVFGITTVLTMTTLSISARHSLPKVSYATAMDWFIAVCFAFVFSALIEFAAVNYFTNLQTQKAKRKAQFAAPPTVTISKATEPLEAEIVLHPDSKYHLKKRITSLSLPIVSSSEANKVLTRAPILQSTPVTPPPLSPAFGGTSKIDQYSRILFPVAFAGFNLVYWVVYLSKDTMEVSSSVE", "T15 sequence (P18505 26-474)": "as the sequence (P18505 26-474) above", "T15 sequence (P18507 40-475 partner)": "as the sequence (P18507 40-475 partner) above", "test": "FLIPR modulation of GABA response in cells expressing GABAA receptor subtype", "assay_type": "cell-based", "details": "in presence of GABA, — = value not measurable", "experimental": "as §1"}, "[16]": {"molecular_target": "T16, α6β2γ2 GABAA receptor (Homo sapiens, UniProt P47870+Q16445)", "T16 construct": "expressed in transfected cells", "T16 sequence (Q16445 20-453)": "as the sequence (Q16445 20-453) above", "T16 sequence (P47870 25-512 limits assumed)": "as the sequence (P47870 25-512 limits assumed) above", "T16 sequence (P18507 40-475 partner)": "as the sequence (P18507 40-475 partner) above", "test": "FLIPR modulation of GABA response in cells expressing GABAA receptor subtype", "assay_type": "cell-based", "details": "in presence of GABA, — = value not measurable", "experimental": "as §1"}, "[17]": {"molecular_target": "T17, α6β3γ2 GABAA receptor (Homo sapiens, UniProt P28472+Q16445)", "T17 construct": "expressed in transfected cells", "T17 sequence (Q16445 20-453)": "as the sequence (Q16445 20-453) above", "T17 sequence (P28472 26-473)": "as the sequence (P28472 26-473) above", "T17 sequence (P18507 40-475 partner)": "as the sequence (P18507 40-475 partner) above", "test": "FLIPR modulation of GABA response in cells expressing GABAA receptor subtype", "assay_type": "cell-based", "details": "in presence of GABA, — = value not measurable", "experimental": "as §1"}, "[18]": {"test_system": "GABAA receptor subtypes", "test": "FLIPR panel of 18 GABAA receptor subtypes", "assay_type": "cell-based", "details": "for modulating activity across GABAA receptor subtypes tested: 18 subtypes, FLIPR", "experimental": "as §1\nThe results further indicate that the isomeric purity of compositions containing compounds of Formula (I) greatly impacts the utility of such compositions as therapeutic agents."}, "[19]": {"molecular_target": "T18, α4β3δ GABAA receptor (Homo sapiens, UniProt P28472+P48169)", "T18 sequence (P48169 36-554)": "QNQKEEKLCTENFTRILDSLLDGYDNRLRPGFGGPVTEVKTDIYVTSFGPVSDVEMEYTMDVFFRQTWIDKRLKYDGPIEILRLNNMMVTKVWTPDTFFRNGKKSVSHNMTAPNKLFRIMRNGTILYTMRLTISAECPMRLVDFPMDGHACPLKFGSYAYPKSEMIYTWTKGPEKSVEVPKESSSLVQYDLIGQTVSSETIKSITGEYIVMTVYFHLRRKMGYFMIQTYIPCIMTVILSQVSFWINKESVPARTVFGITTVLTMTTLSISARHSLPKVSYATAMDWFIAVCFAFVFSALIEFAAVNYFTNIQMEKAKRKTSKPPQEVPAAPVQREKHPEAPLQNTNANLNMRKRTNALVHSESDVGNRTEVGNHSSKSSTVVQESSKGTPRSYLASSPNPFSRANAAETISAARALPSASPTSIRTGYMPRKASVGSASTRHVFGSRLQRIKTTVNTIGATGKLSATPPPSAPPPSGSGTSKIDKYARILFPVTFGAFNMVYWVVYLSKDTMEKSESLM", "T18 sequence (P28472 26-473)": "as the sequence (P28472 26-473) above", "T18 sequence (O14764 25-452 partner)": "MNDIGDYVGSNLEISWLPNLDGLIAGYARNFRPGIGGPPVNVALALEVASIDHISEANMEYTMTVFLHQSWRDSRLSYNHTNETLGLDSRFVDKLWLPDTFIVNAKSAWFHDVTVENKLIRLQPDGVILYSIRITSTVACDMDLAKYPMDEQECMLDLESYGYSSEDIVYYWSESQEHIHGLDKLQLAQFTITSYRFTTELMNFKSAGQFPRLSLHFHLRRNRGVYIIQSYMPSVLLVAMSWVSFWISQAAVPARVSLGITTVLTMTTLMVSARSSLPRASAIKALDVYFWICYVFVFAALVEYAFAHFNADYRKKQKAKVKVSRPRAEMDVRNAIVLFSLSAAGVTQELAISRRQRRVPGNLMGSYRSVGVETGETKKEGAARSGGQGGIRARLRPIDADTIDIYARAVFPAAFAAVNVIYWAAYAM", "test": "FLIPR modulation of GABA response in cells expressing GABAA receptor subtype", "assay_type": "cell-based", "set-up": "expressed in transfected cells", "details": "in presence of GABA, — = value not measurable", "experimental": "as §1"}, "[20]": {"molecular_target": "picrotoxin binding site of GABAA receptors", "details": "membranes from cortices of rat brains; Table 1 of WO 2016/061527; read-out: IC50 in the TBPS displacement assay; cited from earlier work"}, "[21]": {"molecular_target": "T2, α1β2γ2 GABAA receptor", "details": "10 μM steroid, GABA 2 μM (EC20), LTK cells, Table 2 of WO 2016/061527; cited from earlier work"}, "[22]": {"molecular_target": "T18, α4β3δ GABAA receptor", "set-up": "expressed in transfected cells; host or cells: CHO cells (transient)", "details": "10 μM steroid, GABA 2 μM (EC20), CHO cells, Table 2 of WO 2016/061527; cited from earlier work"}}, "data": [{"compound": "C[C@@]1(O)CC[C@@]2(C)[C@@H](CC[C@@H]3[C@@H]2CC[C@]2(C)[C@@H](C(=O)Cn4cc(C#N)cn4)CC[C@@H]32)C1", "note": "[CV-10155, 1-[2-[(3R,5S,8R,9S,10S,13S,14S,17S)-3-hydroxy-3,10,13-trimethyl-1,2,4,5,6,7,8,9,11,12,14,15,16,17-tetradecahydrocyclopenta[a]phenanthren-17-yl]-2-oxoethyl]pyrazole-4-carbonitrile]", "values": [{"measurement": "EC50", "setting": "[1]", "result": 521, "unit": "nM"}, {"measurement": "EC50", "setting": "[2]", "result": 839, "unit": "nM"}, {"measurement": "EC50", "setting": "[3]", "result": 520, "unit": "nM"}, {"measurement": "EC50", "setting": "[4]", "result": 253, "unit": "nM"}, {"measurement": "EC50", "setting": "[5]", "result": 213, "unit": "nM"}, {"measurement": "EC50", "setting": "[6]", "result": 296, "unit": "nM"}, {"measurement": "EC50", "setting": "[7]", "result": 946, "unit": "nM"}, {"measurement": "EC50", "setting": "[8]", "result": 1820, "unit": "nM"}, {"measurement": "EC50", "setting": "[9]", "result": 273, "unit": "nM"}, {"measurement": "EC50", "setting": "[10]", "result": 204, "unit": "nM"}, {"measurement": "EC50", "setting": "[11]", "result": 1330, "unit": "nM"}, {"measurement": "EC50", "setting": "[12]", "result": 762, "unit": "nM"}, {"measurement": "EC50", "setting": "[13]", "result": 359, "unit": "nM"}, {"measurement": "EC50", "setting": "[14]", "result": 1300, "unit": "nM"}, {"measurement": "EC50", "setting": "[15]", "result": 359, "unit": "nM"}, {"measurement": "EC50", "setting": "[16]", "result": 1100, "unit": "nM"}, {"measurement": "EC50", "setting": "[17]", "result": 245, "unit": "nM"}, {"measurement": "modulating activity across GABAA receptor subtypes tested", "setting": "[18]", "result": "some level of positive allosteric modulating activity in all of the GABAA receptor subtypes tested"}, {"measurement": "activity on α4β3δ versus α1β2γ2 GABAA receptors", "setting": "[18]; comparison of Example 1 data", "result": "substantially more active on α4β3δ GABAA receptors than on α1β2γ2 GABAA receptors"}, {"measurement": "EC50", "setting": "[19]", "result": 106, "unit": "nM"}]}, {"compound": "C[C@@]1(O)CC[C@@]2(C)[C@H](CC[C@@H]3[C@@H]2CC[C@]2(C)[C@@H](C(=O)Cn4cc(C#N)cn4)CC[C@@H]32)C1", "note": "[Compound 10]", "values": [{"measurement": "IC50", "setting": "[20]", "result": "< 10", "unit": "nM"}]}, {"compound": "C[C@@]1(O)CC[C@@]2(C)[C@@H](CC[C@@H]3[C@@H]2CC[C@]2(C)[C@@H](C(=O)Cn4ccc(C#N)n4)CC[C@@H]32)C1", "note": "[Compound 121]", "values": [{"measurement": "IC50", "setting": "[20]", "result": "10 to 50", "unit": "nM"}, {"measurement": "efficacy (relative potentiation of GABA-mediated conductance)", "setting": "[21]", "result": "> 500", "unit": "%"}, {"measurement": "efficacy (relative potentiation of GABA-mediated conductance)", "setting": "[22]", "result": "> 500", "unit": "%"}]}, {"compound": "C[C@]1(O)CC[C@@]2(C)[C@@H](CC[C@@H]3[C@@H]2CC[C@]2(C)[C@@H](C(=O)Cn4cc(C#N)cn4)CC[C@@H]32)C1", "note": "[SPNC-019, reference compound]", "values": [{"measurement": "EC50", "setting": "[13]", "result": 1200, "unit": "nM"}, {"measurement": "EC50", "setting": "[14]", "result": 1810, "unit": "nM"}, {"measurement": "EC50", "setting": "[17]", "result": 1770, "unit": "nM"}, {"measurement": "modulating activity across GABAA receptor subtypes tested", "setting": "[18]", "result": "no modulating activity in 15 of the 18 GABAA receptor subtypes tested"}]}]}
